Experimental data from ChEMBL document CHEMBL1201862, “PubChem BioAssay data set” (2004).
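Briefly, cells in 96-well plates were exposed to five compound concentrations for 48 h, and endpoints were estimated by linear interpolation. GI50 marks 50% less growth.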 Calls of active or inactive are those of the source. Cut-off read from the data, not from the text of the source: active = GI50 up to about 1.1 µM and inactive = higher.

How the values were obtained:
Assay in all cases: DTP human tumour cell line panel, 48 h
OVCAR-4 = system: OVCAR-4
PC-3 = system: PC-3
TK-10 = system: TK-10
BT-549 = system: BT-549
NCI-H522 = system: NCI-H522
HCT-15 = system: HCT-15
SR = system: SR
SK-MEL-2 = system: SK-MEL-2
SF-295 = system: SF-295
Hs-578T = system: Hs-578T
MOLT-4 = system: MOLT-4
OVCAR-3 = system: OVCAR-3
NCI-H460 = system: NCI-H460
RPMI-8226 = system: RPMI-8226
CCRF-CEM = system: CCRF-CEM
NCI-H226 = system: NCI-H226
SW-620 = system: SW-620
SN12C = system: SN12C
COLO 205 = system: COLO 205
NCI-H23 = system: NCI-H23
A549 = system: A549
MDA-N = system: MDA-N
ACHN = system: ACHN
HCC 2998 = system: HCC 2998
786-0 = system: 786-0
NCI/ADR-RES = system: NCI/ADR-RES
SF-539 = system: SF-539
SF-268 = system: SF-268
K562 = system: K562
EKVX = system: EKVX
HCT-116 = system: HCT-116
SK-OV-3 = system: SK-OV-3
SK-MEL-5 = system: SK-MEL-5
KM12 = system: KM12
SK-MEL-28 = system: SK-MEL-28
OVCAR-5 = system: OVCAR-5
SNB-75 = system: SNB-75
HT-29 = system: HT-29
A498 = system: A498
MDA-MB-231 = system: MDA-MB-231
HOP-92 = system: HOP-92
SNB-19 = system: SNB-19
OVCAR-8 = system: OVCAR-8
UACC-62 = system: UACC-62
T47D = system: T47D
HL-60 = system: HL-60
UACC-257 = system: UACC-257
HOP-62 = system: HOP-62
U-251 = system: U-251
UO-31 = system: UO-31
CAKI-1 = system: CAKI-1
Malme-3M = system: Malme-3M
LOX IMVI = system: LOX IMVI
RXF 393 = system: RXF 393
MCF7 = system: MCF7
IGROV-1 = system: IGROV-1
MDA-MB-435 = system: MDA-MB-435
M14 = system: M14
DU-145 = system: DU-145

Question: For `CN(CC(=O)O)Cc1oc(CO)cc(=O)c1O`, which GI50 (OVCAR-4) is on record?
Answer: > 100 µM (inactive)

Question: And the GI50 (PC-3)?
Answer: > 100 µM (inactive)

Question: And the GI50 (TK-10)?
Answer: > 100 µM (inactive)

Question: And the GI50 (BT-549)?
Answer: > 100 µM (inactive)

Question: And the GI50 (NCI-H522)?
Answer: > 100 µM (inactive)

Question: What about the GI50 (HCT-15) of the same compound?
Answer: > 100 µM

Question: And the GI50 (SR)?
Answer: > 100 µM (inactive)

Question: And the GI50 (SK-MEL-2)?
Answer: > 100 µM (inactive)

Question: And the GI50 (SF-295)?
Answer: > 100 µM (inactive)

Question: What about the GI50 (Hs-578T) of the same compound?
Answer: > 100 µM (inactive)

Question: And the GI50 (MOLT-4)?
Answer: > 100 µM (inactive)

Question: And the GI50 (OVCAR-3)?
Answer: > 100 µM (inactive)

Question: What about the GI50 (NCI-H460) of the same compound?
Answer: > 100 µM (inactive)

Question: What about the GI50 (RPMI-8226) of the same compound?
Answer: > 100 µM (inactive)

Question: And the GI50 (CCRF-CEM)?
Answer: > 100 µM (inactive)

Question: And the GI50 (NCI-H226)?
Answer: > 100 µM (inactive)

Question: And the GI50 (SW-620)?
Answer: > 100 µM (inactive)

Question: And the GI50 (SN12C)?
Answer: > 100 µM (inactive)

Question: And the GI50 (COLO 205)?
Answer: > 100 µM (inactive)

Question: What about the GI50 (NCI-H23) of the same compound?
Answer: > 100 µM (inactive)

Question: What about the GI50 (A549) of the same compound?
Answer: > 100 µM (inactive)

Question: And the GI50 (MDA-N)?
Answer: > 100 µM (inactive)

Question: What about the GI50 (ACHN) of the same compound?
Answer: > 100 µM (inactive)

Question: And the GI50 (HCC 2998)?
Answer: > 100 µM (inactive)

Question: What about the GI50 (786-0) of the same compound?
Answer: > 100 µM (inactive)

Question: What about the GI50 (NCI/ADR-RES) of the same compound?
Answer: > 100 µM (inactive)

Question: What about the GI50 (SF-539) of the same compound?
Answer: > 100 µM (inactive)

Question: And the GI50 (SF-268)?
Answer: > 100 µM (inactive)

Question: And the GI50 (K562)?
Answer: > 100 µM (inactive)

Question: What about the GI50 (EKVX) of the same compound?
Answer: > 100 µM (inactive)

Question: And the GI50 (HCT-116)?
Answer: > 100 µM (inactive)

Question: And the GI50 (SK-OV-3)?
Answer: > 100 µM (inactive)

Question: What about the GI50 (SK-MEL-5) of the same compound?
Answer: > 100 µM (inactive)

Question: What about the GI50 (KM12) of the same compound?
Answer: > 100 µM (inactive)

Question: What about the GI50 (SK-MEL-28) of the same compound?
Answer: > 100 µM (inactive)

Question: What about the GI50 (OVCAR-5) of the same compound?
Answer: > 100 µM (inactive)

Question: What about the GI50 (SNB-75) of the same compound?
Answer: > 100 µM (inactive)

Question: And the GI50 (HT-29)?
Answer: > 100 µM (inactive)

Question: And the GI50 (A498)?
Answer: > 100 µM (inactive)

Question: And the GI50 (MDA-MB-231)?
Answer: > 100 µM (inactive)

Question: And the GI50 (HOP-92)?
Answer: > 100 µM (inactive)

Question: What about the GI50 (SNB-19) of the same compound?
Answer: > 100 µM (inactive)

Question: What about the GI50 (OVCAR-8) of the same compound?
Answer: > 100 µM (inactive)

Question: And the GI50 (UACC-62)?
Answer: > 100 µM (inactive)

Question: What about the GI50 (T47D) of the same compound?
Answer: > 100 µM (inactive)

Question: And the GI50 (HL-60)?
Answer: 30 µM (inactive)

Question: And the GI50 (UACC-257)?
Answer: > 100 µM (inactive)

Question: And the GI50 (HOP-62)?
Answer: > 100 µM (inactive)

Question: What about the GI50 (U-251) of the same compound?
Answer: > 100 µM (inactive)

Question: And the GI50 (UO-31)?
Answer: > 100 µM (inactive)

Question: And the GI50 (CAKI-1)?
Answer: > 100 µM (inactive)

Question: And the GI50 (Malme-3M)?
Answer: > 100 µM (inactive)

Question: And the GI50 (LOX IMVI)?
Answer: > 100 µM (inactive)

Question: And the GI50 (RXF 393)?
Answer: > 100 µM (inactive)

Question: And the GI50 (MCF7)?
Answer: > 100 µM (inactive)

Question: What about the GI50 (IGROV-1) of the same compound?
Answer: > 100 µM (inactive)

Question: What about the GI50 (MDA-MB-435) of the same compound?
Answer: > 100 µM (inactive)

Question: What about the GI50 (M14) of the same compound?
Answer: > 100 µM (inactive)

Question: `COc1ccc2c(c1)C(=O)CC1c3cnccc3C(=O)N21` (centres undefined) was tested. Which GI50 (OVCAR-4) did it give?
Answer: > 100 µM (inactive)

Question: And the GI50 (PC-3)?
Answer: > 100 µM (inactive)

Question: What about the GI50 (TK-10) of the same compound?
Answer: > 100 µM (inactive)

Question: And the GI50 (BT-549)?
Answer: > 100 µM (inactive)

Question: And the GI50 (NCI-H522)?
Answer: > 100 µM (inactive)

Question: And the GI50 (HCT-15)?
Answer: > 100 µM

Question: And the GI50 (SR)?
Answer: > 85.5 µM (inactive)

Question: And the GI50 (SK-MEL-2)?
Answer: > 100 µM (inactive)

Question: What about the GI50 (SF-295) of the same compound?
Answer: > 100 µM (inactive)

Question: What about the GI50 (MOLT-4) of the same compound?
Answer: > 100 µM (inactive)

Question: What about the GI50 (OVCAR-3) of the same compound?
Answer: > 100 µM (inactive)

Question: What about the GI50 (NCI-H460) of the same compound?
Answer: > 67.9 µM (inactive)

Question: What about the GI50 (RPMI-8226) of the same compound?
Answer: > 92 µM (inactive)

Question: And the GI50 (NCI-H226)?
Answer: > 100 µM (inactive)

Question: What about the GI50 (SW-620) of the same compound?
Answer: > 100 µM (inactive)

Question: And the GI50 (SN12C)?
Answer: > 100 µM (inactive)

Question: And the GI50 (COLO 205)?
Answer: > 100 µM (inactive)

Question: And the GI50 (NCI-H23)?
Answer: > 100 µM (inactive)

Question: And the GI50 (A549)?
Answer: > 100 µM (inactive)

Question: And the GI50 (MDA-N)?
Answer: > 100 µM (inactive)

Question: And the GI50 (ACHN)?
Answer: > 100 µM (inactive)

Question: What about the GI50 (HCC 2998) of the same compound?
Answer: > 86.1 µM (inactive)

Question: What about the GI50 (786-0) of the same compound?
Answer: > 100 µM (inactive)

Question: And the GI50 (NCI/ADR-RES)?
Answer: > 100 µM (inactive)

Question: And the GI50 (SF-539)?
Answer: > 100 µM (inactive)

Question: What about the GI50 (SF-268) of the same compound?
Answer: > 100 µM (inactive)

Question: And the GI50 (K562)?
Answer: > 94.8 µM (inactive)

Question: And the GI50 (EKVX)?
Answer: > 79.4 µM (inactive)

Question: And the GI50 (HCT-116)?
Answer: > 73.6 µM (inactive)

Question: What about the GI50 (SK-OV-3) of the same compound?
Answer: > 100 µM (inactive)

Question: What about the GI50 (SK-MEL-5) of the same compound?
Answer: > 100 µM (inactive)

Question: What about the GI50 (KM12) of the same compound?
Answer: > 100 µM (inactive)

Question: What about the GI50 (SK-MEL-28) of the same compound?
Answer: > 91.2 µM (inactive)

Question: What about the GI50 (OVCAR-5) of the same compound?
Answer: > 100 µM (inactive)

Question: What about the GI50 (SNB-75) of the same compound?
Answer: > 100 µM (inactive)

Question: And the GI50 (HT-29)?
Answer: > 100 µM (inactive)

Question: What about the GI50 (A498) of the same compound?
Answer: > 100 µM (inactive)

Question: What about the GI50 (MDA-MB-231) of the same compound?
Answer: > 100 µM (inactive)

Question: What about the GI50 (HOP-92) of the same compound?
Answer: > 100 µM (inactive)

Question: And the GI50 (SNB-19)?
Answer: > 72.1 µM (inactive)

Question: What about the GI50 (OVCAR-8) of the same compound?
Answer: > 100 µM (inactive)

Question: What about the GI50 (UACC-62) of the same compound?
Answer: > 63.7 µM (inactive)

Question: And the GI50 (T47D)?
Answer: > 100 µM (inactive)

Question: And the GI50 (UACC-257)?
Answer: > 100 µM (inactive)

Question: What about the GI50 (HOP-62) of the same compound?
Answer: > 27.8 µM (inactive)

Question: What about the GI50 (U-251) of the same compound?
Answer: > 73.5 µM (inactive)

Question: What about the GI50 (UO-31) of the same compound?
Answer: 49.1 µM (inactive)

Question: What about the GI50 (CAKI-1) of the same compound?
Answer: > 100 µM (inactive)

Question: And the GI50 (Malme-3M)?
Answer: > 100 µM (inactive)

Question: And the GI50 (LOX IMVI)?
Answer: > 100 µM (inactive)

Question: What about the GI50 (DU-145) of the same compound?
Answer: > 100 µM (inactive)

Question: What about the GI50 (RXF 393) of the same compound?
Answer: > 75.9 µM (inactive)

Question: What about the GI50 (MCF7) of the same compound?
Answer: > 100 µM (inactive)

Question: What about the GI50 (IGROV-1) of the same compound?
Answer: > 85.1 µM (inactive)

Question: What about the GI50 (MDA-MB-435) of the same compound?
Answer: > 31.6 µM (inactive)

Question: What about the GI50 (M14) of the same compound?
Answer: > 100 µM (inactive)
